This note sets out measurements from patent US20260265238A1, “COMPOUNDS AND PHARMACEUTICAL COMPOSITIONS THAT DEGRADE SWI/SNF-RELATED MATRIX-ASSOCIATED ACTIN-DEPENDENT REGULATOR OF CHROMATIN SUBFAMILY A” (Plexium, Inc., priority 2023, published 2026).

For assay [1], the target named is T1, SMARCA4-HiBiT HeLa cells (protein which is expressed from the SMARCA4 gene) (Homo sapiens, UniProt P51532).
T1 construct: protein which is expressed from the SMARCA2 and SMARCA4 genes; host or cells: HeLa (SMARCA4-HiBiT engineered line)
T1 sequence (P51532 whole entry): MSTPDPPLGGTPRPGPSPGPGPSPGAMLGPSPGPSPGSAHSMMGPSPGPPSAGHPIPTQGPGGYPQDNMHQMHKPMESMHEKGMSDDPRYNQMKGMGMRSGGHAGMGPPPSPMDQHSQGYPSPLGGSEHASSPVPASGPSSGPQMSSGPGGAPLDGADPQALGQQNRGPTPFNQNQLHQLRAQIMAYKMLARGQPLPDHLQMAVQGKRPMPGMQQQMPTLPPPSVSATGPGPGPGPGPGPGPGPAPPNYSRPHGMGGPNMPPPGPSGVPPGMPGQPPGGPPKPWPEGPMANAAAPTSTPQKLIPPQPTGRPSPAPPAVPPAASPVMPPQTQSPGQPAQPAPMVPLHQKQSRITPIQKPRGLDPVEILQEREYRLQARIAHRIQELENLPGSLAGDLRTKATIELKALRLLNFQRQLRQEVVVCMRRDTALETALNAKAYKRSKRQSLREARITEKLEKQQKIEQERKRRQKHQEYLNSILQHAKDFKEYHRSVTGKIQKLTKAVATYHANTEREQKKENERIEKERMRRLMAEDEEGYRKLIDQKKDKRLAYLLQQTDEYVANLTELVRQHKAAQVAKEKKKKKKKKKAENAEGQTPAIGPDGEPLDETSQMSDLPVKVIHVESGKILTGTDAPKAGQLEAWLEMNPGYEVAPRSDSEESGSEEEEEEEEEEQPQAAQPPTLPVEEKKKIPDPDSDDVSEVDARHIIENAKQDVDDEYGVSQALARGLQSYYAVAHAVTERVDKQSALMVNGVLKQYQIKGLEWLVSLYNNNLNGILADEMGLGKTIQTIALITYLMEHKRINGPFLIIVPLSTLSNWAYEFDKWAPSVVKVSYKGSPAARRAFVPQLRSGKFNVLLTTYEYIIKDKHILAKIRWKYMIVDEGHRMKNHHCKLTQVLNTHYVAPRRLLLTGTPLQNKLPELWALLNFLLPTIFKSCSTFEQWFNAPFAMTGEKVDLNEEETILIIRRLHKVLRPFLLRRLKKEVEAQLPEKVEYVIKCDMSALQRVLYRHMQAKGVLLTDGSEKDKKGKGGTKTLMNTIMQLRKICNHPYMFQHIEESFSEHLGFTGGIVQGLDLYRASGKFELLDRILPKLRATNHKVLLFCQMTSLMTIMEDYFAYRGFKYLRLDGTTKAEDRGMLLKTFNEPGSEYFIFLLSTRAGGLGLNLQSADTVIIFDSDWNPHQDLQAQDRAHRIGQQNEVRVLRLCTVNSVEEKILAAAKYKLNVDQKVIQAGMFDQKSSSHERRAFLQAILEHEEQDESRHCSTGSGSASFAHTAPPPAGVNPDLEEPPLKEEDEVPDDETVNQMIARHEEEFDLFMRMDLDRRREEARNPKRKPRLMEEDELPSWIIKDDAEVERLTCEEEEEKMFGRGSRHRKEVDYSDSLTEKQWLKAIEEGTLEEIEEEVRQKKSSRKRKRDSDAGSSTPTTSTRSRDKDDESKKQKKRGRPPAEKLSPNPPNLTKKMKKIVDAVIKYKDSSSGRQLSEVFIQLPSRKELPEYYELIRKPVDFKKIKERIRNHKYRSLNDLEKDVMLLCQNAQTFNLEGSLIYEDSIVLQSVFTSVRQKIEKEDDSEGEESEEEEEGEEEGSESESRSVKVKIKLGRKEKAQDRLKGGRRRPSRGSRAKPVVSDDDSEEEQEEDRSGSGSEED
Nature of the assay: SMARCA4 degradation assay (HiBiT-fusion HeLa cell line, 24 h, luminescence). In kind it is cell-based. The method in brief: (§1)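 SMARCA2- or SMARCA4-HiBiT HeLa cells seeded overnight at 37° C, then given compound as a 10-point dilution (typically 10 μM to 300 pM) for 24 h at 37° C. Protein level read by HiBiT lytic detection luminescence; DC50 from dose-response curves; degradation also scored at 1 μM.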
On the technique in general: HiBiT is a short tag that completes a luciferase, so light tracks the accessible tagged protein.

Assay [2] deals with T2, SMARCA2-HiBiT HeLa cells (protein which is expressed from the SMARCA2 gene) (Homo sapiens, UniProt P51531).
T2 construct: protein which is expressed from the SMARCA2 and SMARCA4 genes; host or cells: HeLa (SMARCA2-HiBiT engineered line)
T2 sequence (P51531 whole entry): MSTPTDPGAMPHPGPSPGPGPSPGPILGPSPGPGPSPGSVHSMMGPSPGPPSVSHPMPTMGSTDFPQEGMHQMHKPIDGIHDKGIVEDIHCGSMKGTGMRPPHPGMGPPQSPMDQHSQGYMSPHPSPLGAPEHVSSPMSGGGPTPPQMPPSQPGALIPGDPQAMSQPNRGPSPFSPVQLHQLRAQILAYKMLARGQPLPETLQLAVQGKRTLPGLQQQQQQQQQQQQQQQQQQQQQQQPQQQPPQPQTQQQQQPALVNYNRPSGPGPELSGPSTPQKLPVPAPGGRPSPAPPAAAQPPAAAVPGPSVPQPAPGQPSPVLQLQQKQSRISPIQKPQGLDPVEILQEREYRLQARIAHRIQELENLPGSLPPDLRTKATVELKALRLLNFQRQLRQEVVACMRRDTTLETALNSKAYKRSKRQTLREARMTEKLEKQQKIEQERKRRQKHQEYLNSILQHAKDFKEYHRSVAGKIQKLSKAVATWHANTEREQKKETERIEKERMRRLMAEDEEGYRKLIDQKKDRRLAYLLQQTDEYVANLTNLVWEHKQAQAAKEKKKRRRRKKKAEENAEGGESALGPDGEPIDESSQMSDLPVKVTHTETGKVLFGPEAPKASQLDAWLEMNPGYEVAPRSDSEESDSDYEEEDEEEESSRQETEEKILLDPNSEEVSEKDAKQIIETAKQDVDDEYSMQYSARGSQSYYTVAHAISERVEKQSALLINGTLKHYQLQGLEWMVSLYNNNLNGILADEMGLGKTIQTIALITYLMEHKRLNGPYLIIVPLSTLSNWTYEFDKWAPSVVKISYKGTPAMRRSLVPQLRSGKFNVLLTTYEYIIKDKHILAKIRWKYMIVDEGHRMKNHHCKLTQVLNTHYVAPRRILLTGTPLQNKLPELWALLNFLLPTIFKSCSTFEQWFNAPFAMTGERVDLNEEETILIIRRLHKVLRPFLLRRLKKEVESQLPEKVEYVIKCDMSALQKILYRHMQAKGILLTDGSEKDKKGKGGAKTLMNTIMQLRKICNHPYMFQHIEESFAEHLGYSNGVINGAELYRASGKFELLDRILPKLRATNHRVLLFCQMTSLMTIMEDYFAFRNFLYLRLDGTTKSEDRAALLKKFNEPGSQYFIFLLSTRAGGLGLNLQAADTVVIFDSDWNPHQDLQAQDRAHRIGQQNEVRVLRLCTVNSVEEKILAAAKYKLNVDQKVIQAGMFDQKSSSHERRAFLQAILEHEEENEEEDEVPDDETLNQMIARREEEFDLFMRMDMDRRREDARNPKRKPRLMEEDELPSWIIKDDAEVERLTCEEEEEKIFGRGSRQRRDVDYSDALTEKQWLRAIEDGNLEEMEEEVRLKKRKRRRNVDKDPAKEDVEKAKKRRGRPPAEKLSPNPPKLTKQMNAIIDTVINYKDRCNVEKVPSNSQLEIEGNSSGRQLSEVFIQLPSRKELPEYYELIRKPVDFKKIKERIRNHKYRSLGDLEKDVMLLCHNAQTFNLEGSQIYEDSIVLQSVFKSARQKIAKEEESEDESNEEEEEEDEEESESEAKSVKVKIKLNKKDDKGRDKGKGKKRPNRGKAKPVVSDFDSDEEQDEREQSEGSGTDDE
Put plainly: SMARCA2 degradation assay (HiBiT-fusion HeLa cell line, 24 h, luminescence). In kind it is cell-based. The method in brief:
as §1

For orientation: DC50 means the concentration giving 50% degradation. Low values mean degradation at low concentration, high ones degradation only at high concentration. Turning to `Nc1nnc(-c2ccccc2O)cc1N1CCCN(c2ccnc(C#CCN3C(=O)c4ccccc4C3=O)n2)CC1` [Compound P-375, 2-[3-(4-{4-[3-amino-6-(o-hydroxyphenyl)-4-pyridaziny1]-1,4-diazepan-1-yl}-2-pyrimidinyl)-2-propynyl]-1,3-isoindolinedione], the DC50 in assay [1] and in assay [2] was 50 to 500 nM in each case. For the same compound, in assay [1] (@ 1 μM), the “SMARCA4 % Degradation @ 1 μM” value was “++ (++=30-70%)”. Also, the “SMARCA2 % Degradation @ 1 μM” value in assay [2] (@ 1 μM) is recorded as “+++ (+++=>70%)”.
What is called inhibition is the change of the read-out against control, counted positive when it falls. Lower therefore signals a weak effect. In the case of `Nc1nnc(-c2ccccc2O)cc1N1CCCN(c2ccnc(C#CCN3C[C@H]4C[C@@H]3CO4)n2)CC1` [Compound P-376, 0-(5-{4-[2-(3-{(1R,4R)-2-oxa-5-azabicyclo[2.2.1]hept-5-y1}-1-propynyl)-4-pyrimidinyl]-1,4-diazepan-1-y1}-6-amino-3-pyridazinyl)phenol], the DC50 in assay [1] fell in the range of 500 to 5000 nM; in assay [2], 50 to 500 nM. Further, the inhibition at 1 µM in assay [1] (@ 1 μM) was 30 to 70%. Further, the “SMARCA2 % Degradation @ 1 μM” value in assay [2] (@ 1 μM) is “++ (++=30-70%)”.
For `Nc1nnc(-c2ccccc2O)cc1N1CCCN(c2ccnc(C#CCN3C[C@@H]4C[C@H]3CO4)n2)CC1` [Compound P-377, 0-(5-{4-[2-(3-{(1S,4S)-2-oxa-5-azabicyclo[2.2.1]hept-5-yl}-1-propynyl)-4-pyrimidinyl]-1,4-diazepan-1-y1}-6-amino-3-pyridazinyl)phenol], in that order: 500 to 5000 nM, 50 to 500 nM, 30 to 70% and “++ (++=30-70%)”.
With `COC1CCN(CC#Cc2nccc(N3CCCN(c4cc(-c5ccccc5O)nnc4N)CC3)n2)CC1` [Compound P-378, 0-[6-amino-5-(4-{2-[3-(4-methoxy-1-piperidyl)-1-propynyl]-4-pyrimidinyl}-1,4-diazepan-1-yl)-3-pyridazinyl]phenol], the DC50 in assay [1] and in assay [2] was 50 to 500 nM throughout. In assay [1] (@ 1 μM), the inhibition at 1 µM is 30 to 70%. For the same compound, in assay [2] (@ 1 μM), the “SMARCA2 % Degradation @ 1 μM” value is recorded as “+++ (+++=>70%)”.
Regarding `Nc1nnc(-c2ccccc2O)cc1N1CCCN(c2ccnc(C#CCN3CCCOCC3)n2)CC1` [Compound P-379, 0-[6-amino-5-(4-{2-[3-(1,4-oxazepan-4-yl)-1-propynyl]-4-pyrimidinyl}-1,4-diazepan-1-yl)-3-pyridazinyl]phenol], the half-maximal degradation concentration (DC50) in assay [1] and in assay [2] was 50 to 500 nM in each case. This compound also returned an inhibition at 1 µM in assay [1] (@ 1 μM) of 30 to 70%. Further, in assay [2] (@ 1 μM), the “SMARCA2 % Degradation @ 1 μM” value was “+++ (+++=>70%)”.
Regarding `C[C@@H]1CN(CC#Cc2nccc(N3CCCN(c4cc(-c5ccccc5O)nnc4N)CC3)n2)C[C@H](c2ccccc2)O1` [Compound P-380, 0-{5-[4-(2-{3-[(2R,6S)-2-methyl-6-phenyl-4-morpholinyl]-1-propynyl}-4-pyrimidinyl)-1,4-diazepan-1-yl]-6-amino-3-pyridazinyl}phenol], the DC50 in assay [1] and in assay [2] was 500 to 5000 nM each time. For the same compound, the inhibition at 1 µM in assay [1] (1 μM) is under 30%. Also, the “SMARCA2 % Degradation @ 1 μM” value in assay [2] (1 μM) is given as “++ (++=30-70%)”.
As for `CN(C)CC#Cc1nccc(N2C3CCC2CN(c2cnnc(-c4ccccc4O)c2)C3)n1` [Compound P-381, 0-[5-(8-{2-[3-(dimethylamino)-1-propynyl]-4-pyrimidinyl}-3,8-diazabicyclo[3.2.1]oct-3-yl)-3-pyridazinyl]phenol], the DC50 in assay [1] was over 5000 nM; in assay [2], 50 to 500 nM. Moreover, the “SMARCA2 % Degradation @ 1 μM” value in assay [2] (1 μM) is “++ (++=30-70%)”.
`CN(C)CC#Cc1cc(N2C3CCC2CN(c2cc(-c4ccccc4O)nnc2N)CC3)ccn1` (stereo not shown) [Compound P-382, 0-[6-amino-5-(9-{2-[3-(dimethylamino)-1-propynyl]-4-pyridyl}-3,9-diazabicyclo[4.2.1]non-3-y1)-3-pyridazinyl]phenol]: the DC50 in assay [1] and in assay [2] was under 50 nM in each case. The inhibition at 1 µM in assay [1] (1 μM) is over 70%. Further, the “SMARCA2 % Degradation @ 1 μM” value in assay [2] (1 μM) is “+++ (+++=>70%)”.
On to `CC(C)OCC#Cc1cc(N2CCN(c3cc(-c4ccccc4O)nnc3N)CC[C@H]2C)ccn1` [Compound P-383, 0-(5-{(R)-4-[2-(3-isopropoxy-1-propynyl)-4-pyridyl]-5-methyl-1,4-diazepan-1-yl}-6-amino-3-pyridazinyl)phenol], for which the DC50 in assay [1] and in assay [2] was under 50 nM each time. The compound also gave an inhibition at 1 µM in assay [1] (1 μM) of 30 to 70%. Besides, the “SMARCA2 % Degradation @ 1 μM” value in assay [2] (1 μM) is “+++ (+++=>70%)”.
Turning to `CN(C)CC#Cc1cc(OC2CCN(c3cc(-c4ccccc4O)nnc3N)CC2)ccn1` [Compound P-384, 0-[6-amino-5-(4-{2-[3-(dimethylamino)-1-propynyl]-4-pyridyloxy}-1-piperidyl)-3-pyridazinyl]phenol], the DC50 in assay [1] and in assay [2] was 50 to 500 nM each time. Besides, in assay [1] (1 μM), the inhibition at 1 µM is under 30%. Further, the “SMARCA2 % Degradation @ 1 μM” value in assay [2] (1 μM) is recorded as “++ (++=30-70%)”.
Turning to `CN(C)CC#Cc1nc(N2CCCN(c3cc(-c4ccccc4O)nnc3N)CC2)ccc1C#N` [Compound P-385, 6-{4-[3-amino-6-(o-hydroxyphenyl)-4-pyridazinyl]-1,4-diazepan-1-y1}-2-[3-(dimethylamino)-1-propynyl]nicotinonitrile], the DC50 in assay [1] and in assay [2] was 50 to 500 nM in each case. The compound also gave an inhibition at 1 µM in assay [1] (1 μM) of over 70%. Also, in assay [2] (1 μM), the “SMARCA2 % Degradation @ 1 μM” value is “+++ (+++=>70%)”.
`CN(C)CC#Cc1cc(OC2CN(c3cc(-c4ccccc4O)nnc3N)C2)ccn1` [Compound P-386, 0-[6-amino-5-(3-{2-[3-(dimethylamino)-1-propynyl]-4-pyridyloxy}-1-azetidinyl)-3-pyridazinyl]phenol]: the DC50 in assay [1] and in assay [2] was under 50 nM each time. In addition, the “SMARCA2 % Degradation @ 1 μM” value in assay [2] (1 μM) is recorded as “+ (+=<30%)”.
Turning to `C[C@@H]1CCN(c2cc(-c3ccccc3O)nnc2N)CCN1c1ccnc(C#CC2CCC2)c1` [Compound P-388, 0-(5-{(R)-4-[2-(2-cyclobutylethynyl)-4-pyridyl]-5-methyl-1,4-diazepan-1-yl}-6-amino-3-pyridazinyl)phenol], the DC50 fell in the range of 500 to 5000 nM in assay [1] and 50 to 500 nM in assay [2]. In addition, in assay [1] (1 μM), the inhibition at 1 µM is 30 to 70%. Besides, the “SMARCA2 % Degradation @ 1 μM” value in assay [2] (1 μM) is reported as “++ (++=30-70%)”.
`CN(C)CC#Cc1cc(N2C[C@@H]3CN(c4cc(-c5ccccc5O)nnc4N)C[C@@H]3C2)ccn1` [Compound P-389, 0-{5-[(1R,5S)-7-{2-[3-(dimethylamino)-1-propynyl]-4-pyridyl}-3,7-diazabicyclo[3.3.0]oct-3-yl]-6-amino-3-pyridazinyl} phenol]: the DC50 in assay [1] is under 50 nM; in assay [2], 50 to 500 nM. The inhibition at 1 µM in assay [1] (1 μM) fell in the range of 30 to 70%. For the same compound, in assay [2] (1 μM), the “SMARCA2 % Degradation @ 1 μM” value is listed as “++ (++=30-70%)”.
As to `C[C@@H]1CCN(c2cc(-c3ccccc3O)nnc2N)CCN1c1ccnc(C#CCN2CCCC2=O)c1` [Compound P-390, 1-[3-(4-{ (R)-4-[3-amino-6-(o-hydroxyphenyl)-4-pyridaziny1]-7-methyl-1,4-diazepan-1-yl}-2-pyridyl)-2-propynyl]-2-pyrrolidinone], the DC50 in assay [1] and in assay [2] was 50 to 500 nM in each case. This compound also registered an inhibition at 1 µM in assay [1] (1 μM) of over 70%. For the same compound, the “SMARCA2 % Degradation @ 1 μM” value in assay [2] (1 μM) is on record as “+++ (+++=>70%)”.
In the case of `C[C@@H]1CCN(c2cc(-c3ccccc3O)nnc2N)CCN1c1ccnc(C#CC2CC2)c1` [Compound P-391, 0-(5-{(R)-4-[2-(2-cyclopropylethynyl)-4-pyridyl]-5-methyl-1,4-diazepan-1-yl}-6-amino-3-pyridazinyl)phenol], the DC50 in assay [1] and in assay [2] was 50 to 500 nM throughout. Moreover, the “SMARCA2 % Degradation @ 1 μM” value in assay [2] (1 μM) is “++ (++=30-70%)”.
